Test results taken from US20260069725A1, “LIGAND COMPOUND TARGETING PSMA ANTIGEN, AND CHELATE AND USE THEREOF IN DIAGNOSIS AND TREATMENT OF PROSTATE CANCER” (Chengdu StarRay Therapeutics Co., Ltd, priority 2021, published 2026).

System: LNCaP tumor bearing mice
Assay: Inhibition on tumor
Format: in vivo
Conditions: 14.8 MBq (400 μCi)
Description: PSMA positive LNCaP cells were proliferated and harvested, and then inoculated subcutaneously in mice at an amount of 1×10^7/mouse. When the tumors grew to 200-400 mm^3, the mice were randomly grouped according to the tumor size (3-4 mice in each group), and were given the compound (400 μCi) of the present invention labeled with […] or the positive control compound PSMA-617 labeled with ^177Lu via tail vein injection, respectively. The tumor sizes and body weights of the mice were measured every 3 days after administration, and the death of the mice was recorded. The control group and the administration group were compared to understand the inhibition on LNCaP tumors by different drugs. On day 6 after administration, SPECT/CT scanning was performed on the administration group to understand the exposure of different drugs at the tumor sites during the treatment.

Row | SMILES | body weight of the animals during the treatment
1 | O=C([O-])CN1CCN(CC(=O)[O-])CCN(CC(=O)NCC2CCC(C(=O)N[C@@H](Cc3ccc4ccccc4c3)C(=O)NCCCC[C@H](NC(=O)N[C@@H](CCC(=O)O)C(=O)O)C(=O)O)CC2)CCN(CC(=O)[O-])CC1.[177Lu+3] (stereo partly drawn) [^177Lu-PSMA-617] | no significant difference

System: LNCaP tumor bearing mice
Assay: SPECT/CT scanning, exposure of 177Lu labeled compounds in tumor and tissues
Format: in vivo
Conditions: in contrast to PSMA-617
Description: The ^177Lu labeled precursor compound was diluted to 7.4 MBq (200 μCi)/200 […] with normal saline, and each tumor bearing mouse was given about 7.4 MBq (200 μCi) of the drug via tail vein injection. SPECT/CT scanning was performed on the mice at 1, 4, 8, 24, 48 and 72 h after administration, respectively, with the mice under continuous anesthesia with isoflurane, lying prone on an examination bed. The acquisition method was static imaging 12 min SPECT, and medium resolution whole-body imaging CT. During the process, according to the recording table, the animal body weight, injection dose, injection time and residual dose were recorded, and the time of measuring the injection dose and the time of measuring the residual dose were recorded respectively. After scanning, the data were reconstructed, PMOD software was used to analyze and delineate each organ tissue and quantify the drug distribution therein, the images and data were saved, and the data were further subjected to statistical analysis.
Drug exposure in each tissue was calculated (Table 1, where the values involving PSMA-D were the predicted values).

Row | exposure in the normal tissues, in words | SMILES | drug exposure in the LNCaP tumor, in words
2 | kept at a lower level | COc1ccc(C(=O)NCCN2CCN(C(=O)CCC(=O)N[C@@H](CCCCNC(=O)CN3CCN(CC(=O)O)CCN(CC(=O)O)CCN(CC(=O)O)CC3)C(=O)N3CCc4cc(C(=O)N[C@@H](Cc5ccc6ccccc6c5)C(=O)NCCCC[C@H](NC(=O)N[C@@H](CCC(=O)O)C(=O)O)C(=O)O)ccc4C3)CC2)cc1 [PSMA-L] | greatly increase the drug exposure in the LNCaP tumor

Same assay, conditions: labeled with 177Lu; about 7.4 MBq (200 μCi) tail vein; scans 1-72 h

Row | Exposure in Bladder [h*ID %/g] | Exposure in Bone [h*ID %/g] | Exposure in Heart [h*ID %/g] | Exposure in Kidney [h*ID %/g] | Exposure in Liver [h*ID %/g] | Exposure in Lung [h*ID %/g] | Exposure in Muscle [h*ID %/g] | Exposure in Spleen [h*ID %/g] | Exposure in Tumor [h*ID %/g] | SMILES
3 | 553.2 | 9.939 | 23.31 | 77.45 | 48.92 | 40.93 | 36.36 | 54.27 | 346.9 | O=C(O)CC[C@H](NC(=O)N[C@@H](CCCCNC(=O)[C@H](Cc1ccc2ccccc2c1)NC(=O)[C@H]1CC[C@H](CNC(=O)CN2CCN(CC(=O)O)CCN(CC(=O)O)CCN(CC(=O)O)CC2)CC1)C(=O)O)C(=O)O [PSMA-617, reference compound]
4 | 310.2 | 40.07 | 50.46 | 206 | 101.6 | 35.49 | 17.65 | 42.25 | 235 | COc1ccc(CCCC(=O)NC(CCCNC(=N)N)C(=O)N[C@@H](CCCCNC(=O)CN2CCN(CC(=O)O)CCN(CC(=O)O)CCN(CC(=O)O)CC2)C(=O)NCC2CCC(C(=O)N[C@@H](Cc3ccc4ccccc4c3)C(=O)NCCCC[C@H](NC(=O)N[C@@H](CCC(=O)O)C(=O)O)C(=O)O)CC2)cc1 (stereo partly drawn) [PSMA-A]
5 | 157.3 | 20.62 | 54.22 | 330.5 | 53.28 | 50.04 | 32.14 | 31.81 | 370 | COc1ccc(CCCC(=O)NC(Cc2c[nH]cn2)C(=O)N[C@@H](CCCCNC(=O)CN2CCN(CC(=O)O)CCN(CC(=O)O)CCN(CC(=O)O)CC2)C(=O)NCC2CCC(C(=O)N[C@@H](Cc3ccc4ccccc4c3)C(=O)NCCCC[C@H](NC(=O)N[C@@H](CCC(=O)O)C(=O)O)C(=O)O)CC2)cc1 (stereo partly drawn) [PSMA-B]
6 | 100.8 | 32.01 | 38.58 | 178.7 | 49.61 | 31.55 | 17.82 | 29.2 | 131.9 | COc1ccc(CCCC(=O)NC(CCCCN)C(=O)N[C@@H](CCCCNC(=O)CN2CCN(CC(=O)O)CCN(CC(=O)O)CCN(CC(=O)O)CC2)C(=O)NCC2CCC(C(=O)N[C@@H](Cc3ccc4ccccc4c3)C(=O)NCCCC[C@H](NC(=O)N[C@@H](CCC(=O)O)C(=O)O)C(=O)O)CC2)cc1 (stereo partly drawn) [PSMA-C]
7 | 710.2 | 51.75 | 19.52 | 239 | 31.19 | 14.87 | 25.53 | 46.74 | 473.6 | COc1ccc(CCCC(=O)NC(CCC(N)=O)C(=O)N[C@@H](CCCCNC(=O)CN2CCN(CC(=O)O)CCN(CC(=O)O)CCN(CC(=O)O)CC2)C(=O)NCC2CCC(C(=O)N[C@@H](Cc3ccc4ccccc4c3)C(=O)NCCCC[C@H](NC(=O)N[C@@H](CCC(=O)O)C(=O)O)C(=O)O)CC2)cc1 (stereo partly drawn) [PSMA-E]
8 | 633.7 | 94.85 | 581.6 | 669.2 | 263.1 | 348.3 | 253.3 | 55.76 | 1394 | O=C(O)CCCCCCCCCCCCCCC(=O)N[C@@H](CCCCNC(=O)CN1CCN(CC(=O)O)CCN(CC(=O)O)CCN(CC(=O)O)CC1)C(=O)NCC1CCC(C(=O)N[C@@H](Cc2ccc3ccccc3c2)C(=O)NCCCC[C@H](NC(=O)N[C@@H](CCC(=O)O)C(=O)O)C(=O)O)CC1 (stereo partly drawn) [PSMA-F]
9 | 935.9 | 54.86 | 123.9 | 1589 | 193.2 | 86.51 | 71.89 | 83.39 | 226.4 | O=C(O)CCCCCCCCCCCCC(=O)N[C@@H](CCCCNC(=O)CN1CCN(CC(=O)O)CCN(CC(=O)O)CCN(CC(=O)O)CC1)C(=O)NCC1CCC(C(=O)N[C@@H](Cc2ccc3ccccc3c2)C(=O)NCCCC[C@H](NC(=O)N[C@@H](CCC(=O)O)C(=O)O)C(=O)O)CC1 (stereo partly drawn) [PSMA-G]
10 | 1135 | 22.69 | 63.71 | 575 | 72.88 | 56.76 | 35.74 | 62.06 | 441.2 | O=C(O)CCCCCCCCCCC(=O)N[C@@H](CCCCNC(=O)CN1CCN(CC(=O)O)CCN(CC(=O)O)CCN(CC(=O)O)CC1)C(=O)NCC1CCC(C(=O)N[C@@H](Cc2ccc3ccccc3c2)C(=O)NCCCC[C@H](NC(=O)N[C@@H](CCC(=O)O)C(=O)O)C(=O)O)CC1 (stereo partly drawn) [PSMA-H]
11 | 831.9 | 50.24 | 23.61 | 776.8 | 55.24 | 31.12 | 62.66 | 65.02 | 95.56 | COc1ccc(C(=O)N[C@@H](CCCCNC(=O)CN2CCN(CC(=O)O)CCN(CC(=O)O)CCN(CC(=O)O)CC2)C(=O)NCC2CCC(C(=O)N[C@@H](Cc3ccc4ccccc4c3)C(=O)NCCCC[C@H](NC(=O)N[C@@H](CCC(=O)O)C(=O)O)C(=O)O)CC2)cc1 (stereo partly drawn) [PSMA-I]
12 | 585.9 | 32.71 | 54.52 | 79.78 | 314.2 | 278.5 | 26.77 | 83.81 | 281 | COc1ccc(C(=O)NCCN2CCN(C(=O)CCC(=O)N[C@@H](CCCCNC(=O)CN3CCN(CC(=O)O)CCN(CC(=O)O)CCN(CC(=O)O)CC3)C(=O)NCC3CCC(C(=O)N[C@@H](Cc4ccc5ccccc5c4)C(=O)NCCCC[C@H](NC(=O)N[C@@H](CCC(=O)O)C(=O)O)C(=O)O)CC3)CC2)cc1 (stereo partly drawn) [PSMA-K]
13 | 499.3 | 15.5 | 40.58 | 148.8 | 62.47 | 51.83 | 37.2 | 34.43 | 1350 | COc1ccc(C(=O)NCCN2CCN(C(=O)CCC(=O)N[C@@H](CCCCNC(=O)CN3CCN(CC(=O)O)CCN(CC(=O)O)CCN(CC(=O)O)CC3)C(=O)N3CCc4cc(C(=O)N[C@@H](Cc5ccc6ccccc6c5)C(=O)NCCCC[C@H](NC(=O)N[C@@H](CCC(=O)O)C(=O)O)C(=O)O)ccc4C3)CC2)cc1 [PSMA-L]

Same assay, conditions: predicted values (PSMA-D)

Row | Exposure in Bladder | Exposure in Bone | Exposure in Heart | Exposure in Kidney | Exposure in Liver | Exposure in Lung | Exposure in Muscle | Exposure in Spleen | Exposure in Tumor | SMILES
14 | 200-800 h*ID %/g | 10-80 h*ID %/g | 20-100 h*ID %/g | 50-500 h*ID %/g | 50-200 h*ID %/g | 20-200 h*ID %/g | 20-100 h*ID %/g | 20-100 h*ID %/g | 200-1000 h*ID %/g | COc1ccc(CCCC(=O)NC(CO)C(=O)N[C@@H](CCCCNC(=O)CN2CCN(CC(=O)O)CCN(CC(=O)O)CCN(CC(=O)O)CC2)C(=O)NCC2CCC(C(=O)N[C@@H](Cc3ccc4ccccc4c3)C(=O)NCCCC[C@H](NC(=O)N[C@@H](CCC(=O)O)C(=O)O)C(=O)O)CC2)cc1 (stereo partly drawn) [PSMA-D]
